# What was measured:
# Caco-2 = experiment: In vitro cytotoxicity, WST-1; assay type: cell-based; conditions: Homo sapiens, 24 h exposure, read-out: IC50 values ± SEM
# Source text: (§1) In order to ensure minimal off target mammalian cell cytotoxicity, we assayed NCL812, NCL195 and NCL219 for in vitro cytotoxicity using a panel of adherent mammalian cell lines: Caco-2 (human colorectal adenocarcinoma cell line), HEL 299 (non-cancerous human lung fibroblast cell line), Hep G2 (human hepatocellular carcinoma cell line), MDBK (normal bovine kidney cell line) and MCF7 (human mammary gland adenocarcinoma cell line). Cell lines were maintained in Dulbecco’s Modified Eagle’s Medium (DMEM; […] After 24 h incubation, media was removed, washed once with medium without antibiotics and fresh medium supplemented with 10% (vol/vol) FBS was added. […] Following exposure for 24 h, WST-1 reagent was added to each well at a final concentration of 10%. […] The IC50 value for each compound against each cell line was determined via non-linear regression (three parameters) using GraphPad Prism v6 software. The robustness of assays was confirmed with selected cell lines (Hep G2 and MDBK) seeded onto a 96–well Microwell Nunclon Delta Surface plate (Thermo Scientific Nunc; Cat No: 136101) at 5 × 10^4 cells per well.
# Hep G2 = experiment: In vitro cytotoxicity, WST-1; assay type: cell-based; conditions: Homo sapiens, HepG2; 24 h exposure; read-out: IC50 values ± SEM
# Source text: as §1
# HEL 299 = experiment: In vitro cytotoxicity, WST-1; assay type: cell-based; conditions: Homo sapiens, 24 h exposure, read-out: IC50 values ± SEM
# Source text: as §1
# MCF7 = experiment: In vitro cytotoxicity, WST-1; assay type: cell-based; conditions: Homo sapiens, 24 h exposure, read-out: IC50 values ± SEM
# Source text: as §1
# [1] = Microsomal metabolic stability; assay type: in vitro ADME; conditions: pH 7.4; for microsomal CLint at 0.4 μg/ml / half-life at 0.4 μg/ml: microsomes; for half-life at 0.4 μg/ml: 0.4 μg/ml compound, 0.4 mg/ml protein, NADPH
# Description: The metabolic stability assay was performed by incubating 0.4 μg/ml of each test compound with human and mouse liver microsomes (Xenotech, Lot# 1210057 and 1310211, respectively) suspended in 0.1 M pH 7.4 phosphate buffer at 37°C and 0.4 mg/ml protein concentration. The metabolic reaction was initiated by the addition of an NADPH-regenerating system (i.e. NADPH is the cofactor required for CYP450-mediated metabolism) and quenched at various time points over a 60 min incubation period by the addition of acetonitrile containing diazepam as internal standard. Control samples (containing no NADPH) were included (and quenched at 2, 30 and 60 min) to monitor for potential degradation in the absence of cofactor. Test compound concentration vs time data were fitted to an exponential decay function to determine the first-order rate constant for substrate depletion. This was used to calculate a degradation half-life (T1/2), in vitro intrinsic clearance (CLINT), microsome-predicted blood clearance (CLblood) and a microsome-predicted hepatic extraction ratio (EH) according to the in vitro half-life method of Obach[53].
# S. pneumoniae = experiment: MIC, broth micro-dilution (CLSI); assay type: cell-based, Streptococcus pneumoniae; conditions: for MIC / MIC50 / MIC90: Streptococcus pneumoniae
# S. aureus Xen29 = experiment: Minimum bactericidal concentration (MBC); assay type: cell-based; conditions: Staphylococcus aureus, 99.9% colony count reduction
# Description: The tray was covered with Breathe-Easy sealing membrane (Z380059, Sigma-Aldrich) and incubated for 16 h overnight at 35°C in an EnSpire Multimode Plate Reader 2300 (PerkinElmer), with data collected every 20 min and 2 sec agitation at 60 rpm between data (A600 nm) acquisitions. The experiment was repeated using the luminescent D39LUX strain on a Cytation 5 Cell Imaging Multi-Mode Reader (BioTek) using IsoplateTM-96 F tray PerkinElmer, 6005020). Kill kinetic assays on S. aureus Xen29 was carried out essentially as described for MIC determination on Cytation 5 Cell Imaging Multi-Mode Reader.
# In order to determine the MBC of each compound against S. pneumoniae D39 or S. aureus Xen29, 10 μl aliquots from each duplicate well from the MIC assays (starting from the MIC for each compound) was inoculated onto a HBA plate and incubated at 37°C (+ 5% CO2 for S. pneumoniae D39). Plates were examined at 24 and 48 h and the MBC was recorded as the lowest concentration of each test compound at which a 99.9% colony count reduction was observed on the plate.
# human red blood cells = experiment: Haemolysis assay; assay type: cell-based; conditions: 1 h, 37°C; highest concentration used 128 μg/ml
# Description: This was performed using fresh donor human red blood cells (RBCs), essentially as described previously. Fresh RBCs were washed in PBS three times at 500 × g for 5 min, and then resuspended 1% (w/v) in PBS. […] Thereafter, 198 μL of the 1% RBC solution was added into each well, and the mixture incubated for 1 h at 37°C, with shaking at 100 rpm. Quadruplicate wells containing either 1% Triton X100, or PBS only, served as controls. After incubation, the trays were centrifuged at 1,000 × g for 3 min and 100 μl of supernatant from each well transferred into a new 96-well tray. Absorbance was measured at A450 nm on a Multiskan Ascent 354 Spectrophotometer (Labsystems) and plotted against each dilution. Haemolytic titer was determined as the reciprocal of the dilution at which 50% of erythrocytes were lysed at A450 nm. The experiment was performed twice.
# MDBK = experiment: Real-time cell viability, RealTime-Glo MT; assay type: cell-based, bovine; conditions: 2 or 8 μg/ml, up to 20 h post-treatment
# Source text: as §1
smiles,measurement,setting,value
"Cl.N=C(NN=Cc1ccc(Cl)cc1)NN=Cc1ccc(Cl)cc1 [NCL812, 2,2'-bis[(4-chlorophenyl)methylene] carbonimidic dihydrazide hydrochloride]",IC50,Caco-2,8.2 ± 0.1 µg/mL
same,IC50,Hep G2,9.4 ± 0.1 µg/mL
same,IC50,HEL 299,4.6 ± 0.1 µg/mL
same,IC50,MCF7,12 ± 0.2 µg/mL
same,Predicted CLblood,"[1]; human, 0.4 μg/ml",<5 mL/min/kg
same,microsomal CLint at 0.4 μg/ml,[1]; human,< 7 µL/min/mg
same,half-life at 0.4 μg/ml,[1]; human,> 4.12 h
same,half-life at 0.4 μg/ml,[1]; mouse,> 4.12 h
same,Predicted CLblood,"[1]; mouse, 0.4 μg/ml",<16 mL/min/kg
same,Predicted EH,"[1]; mouse, 0.4 μg/ml",<0.13
same,microsomal CLint at 0.4 μg/ml,[1]; mouse,< 7 µL/min/mg
same,MIC range,S. pneumoniae; 21 isolates,2 to 8 µg/mL
same,MIC range,"S. pneumoniae; S1 Table isolates, 5% FBS + 3% washed RBC",4 to 8 µg/mL
same,MIC range,"S. pneumoniae; S1 Table isolates, 10% FBS + 3% washed RBC",2 to 8 µg/mL
same,MIC,"S. pneumoniae; A66.1 (serotype 3), 5% FBS",4 µg/mL
same,MIC,"S. pneumoniae; A66.1 (serotype 3), 10% FBS",4 µg/mL
same,MIC,"S. pneumoniae; ATCC6303, ATCC 6303 (serotype 3), 5% FBS + 3% washed RBC",4 µg/mL
same,MIC,"S. pneumoniae; ATCC6303, ATCC 6303 (serotype 3), 10% FBS + 3% washed RBC",4 µg/mL
same,MIC,"S. pneumoniae; D39/D39LUX (serotype 2), 5% FBS",8 µg/mL
same,MIC,"S. pneumoniae; D39/D39LUX (serotype 2), 10% FBS",8 µg/mL
same,MIC,"S. pneumoniae; EF3030 (serotype 19F), 5% FBS",8 µg/mL
same,MIC,"S. pneumoniae; EF3030 (serotype 19F), 10% FBS",8 µg/mL
same,MIC,"S. pneumoniae; L82016 (serotype 6B), 5% FBS",4 µg/mL
same,MIC,"S. pneumoniae; L82016 (serotype 6B), 10% FBS",4 µg/mL
same,MIC,"S. pneumoniae; P9 (serotype 6A), 5% FBS",4 µg/mL
same,MIC,"S. pneumoniae; P9 (serotype 6A), 10% FBS",4 µg/mL
same,MIC,"S. pneumoniae; P21 (serotype 3), 5% FBS",4 µg/mL
same,MIC,"S. pneumoniae; P21 (serotype 3), 10% FBS",4 µg/mL
same,MIC50,"S. pneumoniae; S1 Table isolates, 5% FBS",4 µg/mL
same,MIC90,"S. pneumoniae; S1 Table isolates, 5% FBS",8 µg/mL
same,MIC50,"S. pneumoniae; S1 Table isolates, 10% FBS",4 µg/mL
same,MIC90,"S. pneumoniae; S1 Table isolates, 10% FBS",8 µg/mL
same,MIC,"S. pneumoniae; TIGR4 (serotype 4), 5% FBS",4 µg/mL
same,MIC,"S. pneumoniae; TIGR4 (serotype 4), 10% FBS",4 µg/mL
same,MIC,"S. pneumoniae; WCH16 (serotype 6A), 5% FBS",4 µg/mL
same,MIC,"S. pneumoniae; WCH16 (serotype 6A), 10% FBS",8 µg/mL
same,MIC,"S. pneumoniae; WCH43 (serotype 4), 5% FBS",4 µg/mL
same,MIC,"S. pneumoniae; WCH43 (serotype 4), 10% FBS",4 µg/mL
same,MIC,"S. pneumoniae; WCH46 (serotype 4), 5% FBS",4 µg/mL
same,MIC,"S. pneumoniae; WCH46 (serotype 4), 10% FBS",4 µg/mL
same,MIC,"S. pneumoniae; WCH57 (serotype 8), 5% FBS",4 µg/mL
same,MIC,"S. pneumoniae; WCH57 (serotype 8), 10% FBS",4 µg/mL
same,MIC,"S. pneumoniae; WCH77 (serotype 5), 5% FBS",4 µg/mL
same,MIC,"S. pneumoniae; WCH77 (serotype 5), 10% FBS",2 µg/mL
same,MIC,"S. pneumoniae; WCH86 (serotype 4), 5% FBS",4 µg/mL
same,MIC,"S. pneumoniae; WCH86 (serotype 4), 10% FBS",8 µg/mL
same,MIC,"S. pneumoniae; WCH89 (serotype 7), 5% FBS",4 µg/mL
same,MIC,"S. pneumoniae; WCH89 (serotype 7), 10% FBS",8 µg/mL
same,MIC,"S. pneumoniae; WCH92 (serotype 4), 5% FBS",4 µg/mL
same,MIC,"S. pneumoniae; WCH92 (serotype 4), 10% FBS",4 µg/mL
same,MIC,"S. pneumoniae; WCH137 (serotype 6A), 5% FBS",4 µg/mL
same,MIC,"S. pneumoniae; WCH137 (serotype 6A), 10% FBS",4 µg/mL
same,MIC,"S. pneumoniae; WCH158 (serotype 19F), 5% FBS",4 µg/mL
same,MIC,"S. pneumoniae; WCH158 (serotype 19F), 10% FBS",4 µg/mL
same,MIC,"S. pneumoniae; WCH184 (serotype 19F), 5% FBS",4 µg/mL
same,MIC,"S. pneumoniae; WCH184 (serotype 19F), 10% FBS",4 µg/mL
same,MIC,"S. pneumoniae; WCH211 (serotype 11), 5% FBS",4 µg/mL
same,MIC,"S. pneumoniae; WCH211 (serotype 11), 10% FBS",4 µg/mL
same,MIC,"S. pneumoniae; WU2 (serotype 3), 5% FBS",8 µg/mL
same,MIC,"S. pneumoniae; WU2 (serotype 3), 10% FBS",8 µg/mL
same,MBC,S. aureus Xen29,4 µg/mL
same,50% haemolysis titre (HC50),human red blood cells,24 µg/mL
same,Effect on cell viability (real-time),MDBK,affected viability at 8 μg/ml

# Reference: publication PMC5584945, “Evaluation of robenidine analog NCL195 as a novel broad-spectrum antibacterial agent” (PLoS ONE, 2017)
